Data taken from the NIST ThermoML archive (doi:10.1016/j.jct.2014.04.012).
Numbers after ± are expanded uncertainties.

Test: xn = mol fraction of the nth substance listed
Conditions: 101.3 kPa, Liquid, Pycnometric method

Structure (SMILES) | mass density (293.15 K, x1 = 0.2) [kg/m3] | mass density (293.15 K, x1 = 0.25) [kg/m3] | mass density (303.15 K, x1 = 0.2) [kg/m3] | mass density (303.15 K, x1 = 0.25) [kg/m3] | mass density (313.15 K, x1 = 0.2) [kg/m3] | mass density (313.15 K, x1 = 0.25) [kg/m3] | mass density (323.15 K, x1 = 0.2) [kg/m3] | mass density (323.15 K, x1 = 0.25) [kg/m3] | mass density (293.15 K, x1 = 0.333) [kg/m3] | mass density (303.15 K, x1 = 0.333) [kg/m3] | mass density (313.15 K, x1 = 0.333) [kg/m3] | mass density (323.15 K, x1 = 0.333) [kg/m3] | mass density (293.15 K, x2 = 0.2) [kg/m3] | mass density (293.15 K, x2 = 0.25) [kg/m3] | mass density (303.15 K, x2 = 0.2) [kg/m3] | mass density (303.15 K, x2 = 0.25) [kg/m3] | mass density (313.15 K, x2 = 0.2) [kg/m3] | mass density (313.15 K, x2 = 0.25) [kg/m3] | mass density (323.15 K, x2 = 0.2) [kg/m3] | mass density (323.15 K, x2 = 0.25) [kg/m3]
C[N+](C)(C)CCO.[Cl-] [choline chloride] + OCCOCCO | 1120.3 ± 1 | 1122.4 ± 1 | 1113 ± 1 | 1117.9 ± 1 | 1108.9 ± 1 | 1113 ± 1 | 1103.2 ± 1 | 1108.3 ± 1 |  |  |  |  |  |  |  |  |  |  |  | 
C[N+](C)(C)CCO.[Cl-] [choline chloride] + Oc1ccccc1 | 1091.3 ± 1 | 1092.7 ± 1 | 1085.1 ± 1 | 1087.3 ± 1 | 1081.1 ± 1 | 1083.9 ± 1 | 1076 ± 1 | 1079.5 ± 1 | 1096.6 ± 1 | 1093.8 ± 1 | 1087.2 ± 1 | 1082.5 ± 1 |  |  |  |  |  |  |  | 
OCCOCCOCCO [triethylene glycol] + C[N+](C)(C)CCO.[Cl-] |  |  |  |  |  |  |  |  |  |  |  |  | 1120.3 ± 1.1 | 1133.1 ± 1.1 | 1114.6 ± 1.1 | 1126.2 ± 1.1 | 1108.9 ± 1.1 | 1119.3 ± 1.1 | 1103.2 ± 1.1 | 1112.4 ± 1.1
